The record followed here is ChEMBL document CHEMBL1153272, “(2-Aryl-5-methylimidazol-4-ylcarbonyl)guanidines and (2-aryl-5-methyloxazol-4-ylcarbonyl)guanidines as NHE-1 inhibitors” (Bioorg Med Chem Lett, 2009).

As usually defined, the IC50 is the midpoint of a concentration-inhibition curve.

Assay [1] deals with Sodium/hydrogen exchanger 1 (Homo sapiens, UniProt P19634). Put plainly: Inhibition of human NHE1 expressed in PS120 cells assessed as imposed acidosis. The format is cell-based.
The subject of assay [2] is Heart. Put plainly: Cardioprotective activity in Langendorff perfused rat heart assessed as left ventricular end diastolic pressure at 10 uM treated 10 mins before global ischemia challenge for 30 mins followed by 30 mins of reperfusion. The format is functional.
Assay [3] concerns Rattus norvegicus. Description: Cardioprotective activity in Langendorff perfused rat myocardial infarction model assessed as ratio of myocardial infarction size to area at risk at 0.1 mg/kg, iv administered 5 mins before onset ischemia challenge followed by 90 mins reperfusion. The format is functional, Myocardium.
Assay [4] deals with Heart. Put plainly: Cardioprotective activity in Langendorff perfused rat heart assessed as recovery of rate pressure product at 10 uM treated 10 mins before global ischemia challenge for 30 mins followed by 30 mins of reperfusion. The format is functional.

Sodium/hydrogen exchanger 1, sequence (P19634 whole entry, the tested form may be a part): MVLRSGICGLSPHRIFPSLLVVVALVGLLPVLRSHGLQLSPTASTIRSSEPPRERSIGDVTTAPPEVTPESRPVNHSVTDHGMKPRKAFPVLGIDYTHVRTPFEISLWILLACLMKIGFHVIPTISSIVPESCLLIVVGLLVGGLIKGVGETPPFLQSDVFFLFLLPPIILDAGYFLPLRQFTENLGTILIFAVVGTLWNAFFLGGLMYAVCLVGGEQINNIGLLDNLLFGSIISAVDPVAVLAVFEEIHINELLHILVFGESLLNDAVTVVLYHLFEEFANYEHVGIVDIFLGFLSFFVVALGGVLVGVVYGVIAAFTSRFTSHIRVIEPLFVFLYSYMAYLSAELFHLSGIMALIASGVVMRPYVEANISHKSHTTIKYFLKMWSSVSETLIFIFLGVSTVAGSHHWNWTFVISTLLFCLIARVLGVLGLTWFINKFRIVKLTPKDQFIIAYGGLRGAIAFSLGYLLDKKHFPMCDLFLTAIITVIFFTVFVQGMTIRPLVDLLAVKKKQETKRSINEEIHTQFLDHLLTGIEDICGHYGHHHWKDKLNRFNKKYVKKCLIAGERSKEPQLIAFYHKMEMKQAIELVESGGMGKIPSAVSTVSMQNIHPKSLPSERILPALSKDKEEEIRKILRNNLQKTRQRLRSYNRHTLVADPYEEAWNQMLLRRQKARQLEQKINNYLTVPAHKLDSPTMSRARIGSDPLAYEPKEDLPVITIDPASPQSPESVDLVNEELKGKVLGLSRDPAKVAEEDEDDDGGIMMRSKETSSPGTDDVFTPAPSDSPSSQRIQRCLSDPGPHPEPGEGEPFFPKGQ

Consider `Cc1[nH]c(-c2cccc(Cl)c2Cl)nc1C(=O)N=C(N)N`, for which, in assay [1], the IC50 came to 0.5 µM. On the same count and under the same terms, in the case of `Cc1cc(C)cc(-c2nc(C(=O)N=C(N)N)c(C)[nH]2)c1` it was 5 µM.

`Cc1cc(C)cc(-c2nc(C(=O)N=C(N)N)c(C)o2)c1`: the IC50 in assay [1] was 7.1 µM. Turning to `Cc1ccc(-c2nc(C(=O)N=C(N)N)c(C)[nH]2)cc1`, in assay [1], the IC50 is > 30 µM. The same measure, in the same setting: the value for `Cc1[nH]c(-c2cccc(F)c2)nc1C(=O)N=C(N)N` was 4.5 µM. As for `Cc1[nH]c(-c2cc(F)ccc2F)nc1C(=O)N=C(N)N`, in assay [1], the IC50 amounted to 3 µM. On the same count and under the same terms, the value for `Cc1cccc(-c2nc(C(=O)N=C(N)N)c(C)o2)c1` was 6.6 µM; that for `COc1ccccc1-c1nc(C(=O)N=C(N)N)c(C)[nH]1` was 3.1 µM; that for `Cc1[nH]c(-c2cccc(F)c2F)nc1C(=O)N=C(N)N` was 6.6 µM.

Regarding `Cc1[nH]c(-c2cc(F)cc(F)c2)nc1C(=O)N=C(N)N`, in assay [1], the IC50 is 2.7 µM.

For the compound `CS(=O)(=O)O.CS(=O)(=O)O.Cc1ccc(C)c(-c2nc(C(=O)N=C(N)N)c(C)[nH]2)c1`, the results for the Activity in assay [2], in assay [3] and in assay [4] were 32%, 45% and 33%, respectively. Also, the IC50 in assay [1] stood at 1.1 µM.

Regarding `Cc1ccccc1-c1nc(C(=O)N=C(N)N)c(C)[nH]1`, the IC50 in assay [1] stood at 2.4 µM.

Turning to `Cc1[nH]c(-c2ccccc2)nc1C(=O)N=C(N)N`, the IC50 in assay [1] was 12 µM. Still for that read-out and setting: the value for `Cc1[nH]c(-c2ccc(Cl)cc2)nc1C(=O)N=C(N)N` was > 30 µM; that for `COc1cccc(-c2nc(C(=O)N=C(N)N)c(C)[nH]2)c1OC` was > 30 µM. Turning to `CC(C)c1ccc(C(=O)N=C(N)N)cc1S(C)(=O)=O.CS(=O)(=O)O` [CARIPORIDE MESYLATE], the results for the Activity in assay [2], in assay [3] and in assay [4] were 22%, 41% and 48%, respectively. As for `COc1ccc(F)cc1-c1nc(C(=O)N=C(N)N)c(C)[nH]1.CS(=O)(=O)O.CS(=O)(=O)O`, the Activity turned out to be 29% in assay [2] and 27% in assay [4]. Further, the IC50 in assay [1] is 0.8 µM. As for `CS(=O)(=O)O.CS(=O)(=O)O.Cc1[nH]c(-c2cc(Cl)ccc2Cl)nc1C(=O)N=C(N)N`, the values for the Activity in assay [2], in assay [3] and in assay [4] were 25%, 40% and 59%, respectively. In assay [1], the concentration for half-maximal inhibition (IC50) is 0.1 µM. Regarding `CS(=O)(=O)O.Cc1oc(-c2cc(Cl)cc(Cl)c2)nc1C(=O)N=C(N)N`, the Activity in assay [2] is given as 25%; in assay [4], 26%. The concentration for half-maximal inhibition (IC50) in assay [1] was 0.89 µM.

`Cc1oc(-c2cccc(Cl)c2)nc1C(=O)N=C(N)N`: the IC50 in assay [1] is 1.7 µM.

Consider `Cc1oc(-c2ccccc2)nc1C(=O)N=C(N)N`, for which the IC50 in assay [1] is 8.2 µM. Still for that read-out and setting: in the case of `Cc1cccc(-c2nc(C(=O)N=C(N)N)c(C)[nH]2)c1` it was 12 µM. In the case of `CS(=O)(=O)O.Cc1[nH]c(-c2cc(Cl)cc(Cl)c2)nc1C(=O)N=C(N)N`, the Activity came out at 28% in assay [2] and 23% in assay [4]. For the same compound, the IC50 in assay [1] stood at 0.52 µM. Take `Cc1oc(-c2cc(F)ccc2F)nc1C(=O)N=C(N)N`: the half-maximal inhibitory concentration (IC50) in assay [1] worked out at 2.8 µM. As to `CS(=O)(=O)O.Cc1ccc(C)c(-c2nc(C(=O)N=C(N)N)c(C)o2)c1`, the Activity turned out to be 9% in assay [2], 47% in assay [3] and 59% in assay [4]. In assay [1], the concentration for half-maximal inhibition (IC50) turned out to be 0.22 µM.

In the case of `CS(=O)(=O)O.CS(=O)(=O)O.Cc1[nH]c(-c2ccccc2Cl)nc1C(=O)N=C(N)N`, the Activity in assay [2] was found to be 35%; in assay [3], 50%; in assay [4], 69%. In addition, the half-inhibitory concentration (IC50) in assay [1] came out at 1.4 µM. Regarding `Cc1oc(-c2cc(F)cc(F)c2)nc1C(=O)N=C(N)N`, in assay [1], the 50% inhibitory concentration (IC50) came out at 3.3 µM.

In the case of `Cc1oc(-c2cccc(F)c2)nc1C(=O)N=C(N)N`, in assay [1], the half-maximal inhibitory concentration (IC50) was 4.2 µM. On the same count and under the same terms, in the case of `Cc1[nH]c(-c2cccc(Cl)c2)nc1C(=O)N=C(N)N` it was 4.5 µM. For `COc1ccc(Cl)cc1-c1nc(C(=O)N=C(N)N)c(C)[nH]1.CS(=O)(=O)O.CS(=O)(=O)O`, the Activity in assay [2] is listed as 28%; in assay [3], 34%; in assay [4] it was 60%. Also, in assay [1], the IC50 came to 0.24 µM. `Cc1oc(-c2ccc(Cl)cc2)nc1C(=O)N=C(N)N`: the half-inhibitory concentration (IC50) in assay [1] was > 30 µM. As to `Cc1[nH]c(-c2ccc(F)cc2)nc1C(=O)N=C(N)N`, in assay [1], the IC50 was > 30 µM. The same measure, in the same setting: the value for `COc1ccc(-c2nc(C(=O)N=C(N)N)c(C)[nH]2)cc1OC` was 2.1 µM. Take `Cc1[nH]c(-c2ccccc2F)nc1C(=O)N=C(N)N`: in assay [1], the IC50 was 7.2 µM. Take `Cc1cccc(-c2nc(C(=O)N=C(N)N)c(C)[nH]2)c1C`: in assay [1], the IC50 is > 30 µM.

With `CS(=O)(=O)O.Cc1oc(-c2cc(Cl)ccc2Cl)nc1C(=O)N=C(N)N`, the Activity amounted to 27% in assay [2], 39% in assay [3] and 19% in assay [4]. In assay [1], the IC50 came out at 0.072 µM. As for `COc1ccc(-c2nc(C(=O)N=C(N)N)c(C)[nH]2)cc1`, the IC50 in assay [1] is > 30 µM. Consider `COc1cccc(-c2nc(C(=O)N=C(N)N)c(C)[nH]2)c1`, for which the IC50 in assay [1] came out at 4.1 µM.
